According to patent publication US20170008888A1 (KYORIN PHARMACEUTICAL CO., LTD., priority 2014, published 2017):

Legend:
Type in all cases: binding
AMPKa1 or AMPKa2 = test: Probe-based (AX9989) kinase profiling in Jurkat lysate: AMPKa1 or AMPKa2
Summary of the method: (§1)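 Gel-filtered Jurkat lysate (HEPES pH 7.5, 20 mM MnCl2, 5 mg/ml) was pre-incubated 15 min with compound at room temperature, then labelled with 5 μM acyl-phosphate ATP probe AX9989. Tryptic probe-labelled active-site peptides were streptavidin-captured and quantified by LC/MS. Percent inhibition reflected the decrease in labelled-peptide intensity versus no compound.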

AurB or AurC = test: Probe-based (AX9989) kinase profiling in Jurkat lysate: AurB or AurC
Summary of the method: as §1

JAK1 = target: T1, JAK1 (Homo sapiens, UniProt P23458); test: Probe-based (AX9989) kinase profiling in Jurkat lysate: JAK1; settings: read-out: Kinase inhibition % at indicated screening concentration: JAK1; for inhibition at 1 µM: screening concentration 1.0 μM; for inhibition at 0.1 µM: screening concentration 0.1 μM
T1 construct: screened for activity against several kinases in Jurkat cells; endogenous in cells; host or cells: Jurkat cell lysate
T1 sequence (P23458 whole entry): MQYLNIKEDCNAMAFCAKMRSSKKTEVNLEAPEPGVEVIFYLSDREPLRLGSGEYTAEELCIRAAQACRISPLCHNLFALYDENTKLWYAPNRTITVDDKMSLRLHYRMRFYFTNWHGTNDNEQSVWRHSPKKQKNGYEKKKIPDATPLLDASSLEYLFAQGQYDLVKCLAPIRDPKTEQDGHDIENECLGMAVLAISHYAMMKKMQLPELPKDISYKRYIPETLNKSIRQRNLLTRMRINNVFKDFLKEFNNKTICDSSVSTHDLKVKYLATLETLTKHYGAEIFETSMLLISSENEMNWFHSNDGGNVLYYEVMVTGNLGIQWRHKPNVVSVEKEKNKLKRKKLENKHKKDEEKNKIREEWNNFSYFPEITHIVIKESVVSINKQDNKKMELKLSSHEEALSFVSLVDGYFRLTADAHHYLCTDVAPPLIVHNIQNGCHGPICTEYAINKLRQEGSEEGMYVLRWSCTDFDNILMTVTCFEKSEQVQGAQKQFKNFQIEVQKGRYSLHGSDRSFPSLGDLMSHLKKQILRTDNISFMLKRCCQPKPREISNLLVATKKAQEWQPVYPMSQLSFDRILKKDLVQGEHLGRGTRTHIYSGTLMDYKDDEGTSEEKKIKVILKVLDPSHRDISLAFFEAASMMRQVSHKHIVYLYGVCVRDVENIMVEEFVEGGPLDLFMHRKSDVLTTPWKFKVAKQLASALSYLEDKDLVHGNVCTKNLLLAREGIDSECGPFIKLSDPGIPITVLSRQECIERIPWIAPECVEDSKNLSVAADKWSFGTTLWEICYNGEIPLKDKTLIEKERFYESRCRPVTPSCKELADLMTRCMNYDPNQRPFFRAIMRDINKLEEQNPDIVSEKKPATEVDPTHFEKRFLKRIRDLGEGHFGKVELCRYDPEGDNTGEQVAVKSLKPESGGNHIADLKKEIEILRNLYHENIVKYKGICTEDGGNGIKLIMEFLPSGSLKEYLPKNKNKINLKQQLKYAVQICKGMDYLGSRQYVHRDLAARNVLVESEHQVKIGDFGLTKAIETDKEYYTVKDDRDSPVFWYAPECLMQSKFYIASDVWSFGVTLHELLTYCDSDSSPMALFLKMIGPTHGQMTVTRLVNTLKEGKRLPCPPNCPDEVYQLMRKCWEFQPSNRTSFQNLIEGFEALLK
Summary of the method: as §1

ACK = target: T2, ACK (Homo sapiens, UniProt Q07912); test: Probe-based (AX9989) kinase profiling in Jurkat lysate: ACK; settings: read-out: Kinase inhibition % at indicated screening concentration: ACK; for inhibition at 1 µM: screening concentration 1.0 μM; for inhibition at 0.1 µM: screening concentration 0.1 μM
T2 construct: screened for activity against several kinases in Jurkat cells; endogenous in cells; host or cells: Jurkat cell lysate
T2 sequence (Q07912 whole entry): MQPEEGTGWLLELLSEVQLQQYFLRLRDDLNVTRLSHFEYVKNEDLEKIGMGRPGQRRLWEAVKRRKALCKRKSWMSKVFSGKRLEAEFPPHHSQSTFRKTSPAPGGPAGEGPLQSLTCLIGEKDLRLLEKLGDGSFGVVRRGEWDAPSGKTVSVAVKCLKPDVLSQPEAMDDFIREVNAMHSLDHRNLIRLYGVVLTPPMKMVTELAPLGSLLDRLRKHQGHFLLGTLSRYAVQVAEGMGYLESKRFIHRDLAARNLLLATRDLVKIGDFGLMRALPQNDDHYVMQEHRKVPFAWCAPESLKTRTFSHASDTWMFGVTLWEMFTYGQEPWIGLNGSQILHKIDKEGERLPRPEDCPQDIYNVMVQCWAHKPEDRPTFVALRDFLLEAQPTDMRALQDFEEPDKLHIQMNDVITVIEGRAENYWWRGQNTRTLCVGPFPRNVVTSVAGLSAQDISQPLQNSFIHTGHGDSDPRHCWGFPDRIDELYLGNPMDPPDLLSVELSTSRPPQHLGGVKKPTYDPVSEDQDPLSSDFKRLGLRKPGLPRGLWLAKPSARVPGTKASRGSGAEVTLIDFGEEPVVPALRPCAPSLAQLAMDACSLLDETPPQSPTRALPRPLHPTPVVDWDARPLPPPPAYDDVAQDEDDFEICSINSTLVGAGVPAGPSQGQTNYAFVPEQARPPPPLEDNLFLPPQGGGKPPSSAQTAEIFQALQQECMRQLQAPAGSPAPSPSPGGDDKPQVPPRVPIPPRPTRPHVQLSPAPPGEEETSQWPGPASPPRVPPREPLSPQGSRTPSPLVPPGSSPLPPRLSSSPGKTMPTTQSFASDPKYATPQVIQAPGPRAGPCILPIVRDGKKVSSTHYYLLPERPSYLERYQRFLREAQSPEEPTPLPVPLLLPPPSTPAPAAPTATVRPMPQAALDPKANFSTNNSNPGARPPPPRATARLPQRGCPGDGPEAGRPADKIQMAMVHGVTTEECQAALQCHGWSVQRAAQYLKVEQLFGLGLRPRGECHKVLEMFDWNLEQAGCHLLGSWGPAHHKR
Summary of the method: as §1

ABL or ARG = test: Probe-based (AX9989) kinase profiling in Jurkat lysate: ABL or ARG
Summary of the method: as §1

[1] = target: T3, BRD4 bromodomain domain I [BRD4(1)] (Homo sapiens, UniProt O60885); test: BRD4 bromodomain domain 1 inhibition assay (TR-FRET); settings: screening concentration 10 μM
T3 construct: BRD4 bromodomain domain I [BRD4(1)]; purchased Cayman Chemicals
Summary of the method: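 0.5% DMSO, in triplicate, using Cayman BRD4(1) TR-FRET protocol with slight modification. 670/620 nm ratio normalized to 10 μM JQ1, with DMSO control set as 0% inhibition.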

ERK5 = target: T4, ERK5 (Homo sapiens, UniProt Q13164); test: Probe-based (AX9989 acyl phosphate ATP probe) kinase profiling in Jurkat lysate: ERK5; settings: for IC50: calculated from percent inhibition of AX9989 labeling and the screening concentration, Jurkat lysate; for inhibition at 1 µM: screening concentration 1.0 μM; for inhibition at 1 µM / inhibition at 0.1 µM: read-out: Kinase inhibition % at indicated screening concentration: ERK5; for inhibition at 0.1 µM: screening concentration 0.1 μM
T4 construct: screened for activity against several kinases in Jurkat cells; endogenous in cells; host or cells: Jurkat cell lysate
T4 sequence (Q13164 whole entry): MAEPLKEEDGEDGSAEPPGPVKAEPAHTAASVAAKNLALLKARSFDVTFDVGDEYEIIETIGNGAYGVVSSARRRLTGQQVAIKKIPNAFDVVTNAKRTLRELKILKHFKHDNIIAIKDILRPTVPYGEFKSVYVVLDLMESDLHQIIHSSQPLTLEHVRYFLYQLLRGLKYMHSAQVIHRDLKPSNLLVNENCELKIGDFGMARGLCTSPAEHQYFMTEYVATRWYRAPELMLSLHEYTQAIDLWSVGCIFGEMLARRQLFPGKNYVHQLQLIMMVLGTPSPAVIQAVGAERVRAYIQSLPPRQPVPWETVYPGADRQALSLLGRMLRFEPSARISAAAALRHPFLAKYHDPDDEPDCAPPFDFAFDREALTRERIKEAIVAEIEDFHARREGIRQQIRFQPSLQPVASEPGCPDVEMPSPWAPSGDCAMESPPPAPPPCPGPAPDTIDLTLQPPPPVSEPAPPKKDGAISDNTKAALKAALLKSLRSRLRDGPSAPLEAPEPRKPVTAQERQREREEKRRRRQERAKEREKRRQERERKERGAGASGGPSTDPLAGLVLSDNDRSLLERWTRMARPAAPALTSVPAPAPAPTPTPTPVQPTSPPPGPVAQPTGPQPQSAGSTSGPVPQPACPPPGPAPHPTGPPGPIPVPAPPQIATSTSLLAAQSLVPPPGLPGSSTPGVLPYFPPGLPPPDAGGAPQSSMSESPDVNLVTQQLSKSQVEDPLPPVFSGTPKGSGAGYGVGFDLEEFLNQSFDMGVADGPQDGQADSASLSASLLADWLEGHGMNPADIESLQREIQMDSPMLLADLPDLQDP
Summary of the method: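 Gel-filtered Jurkat lysate (5 mg/ml, 20 mM MnCl2) preincubated 15 min at room temperature with compound, then labelled with 5 μM AX9989 acyl phosphate ATP probe. Probe-labelled ERK5 active-site peptides quantified by LC/MS after trypsin digestion and streptavidin capture; IC50 calculated from percent inhibition at the screening concentration.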

Structure (SMILES) | Kinase inhibition % at indicated screening concentration: AMPKa1 or AMPKa2 (AMPKa1 or AMPKa2; screening concentration 1.0 μM) | Kinase inhibition % at indicated screening concentration: AurB or AurC (AurB or AurC; screening concentration 1.0 μM) | inhibition at 1 µM (JAK1) | inhibition at 1 µM (ACK) | Kinase inhibition % at indicated screening concentration: ABL or ARG (ABL or ARG; screening concentration 1.0 μM) | inhibition at 10 µM [1] | IC50 (ERK5) | inhibition at 1 µM (ERK5) | Kinase inhibition % at indicated screening concentration: AMPKa1 or AMPKa2 (AMPKa1 or AMPKa2; screening concentration 0.1 μM) | Kinase inhibition % at indicated screening concentration: AurB or AurC (AurB or AurC; screening concentration 0.1 μM) | inhibition at 0.1 µM (JAK1) | inhibition at 0.1 µM (ACK) | Kinase inhibition % at indicated screening concentration: ABL or ARG (ABL or ARG; screening concentration 0.1 μM) | inhibition at 0.1 µM (ERK5)
CCOc1cc(C(=O)N2CCCCC2)ccc1Nc1cc2c(cn1)N(C)C(=O)c1ccccc1N2C [Compound 12] | E (E is ≦35%) | E (E is ≦35%) | ≤ 35% | ≤ 35% | E (E is ≦35%) | 70 to 85% | 101 to 500 nM | 75 to 90% |  |  |  |  |  | 
CCOc1cc(C(=O)N2CCC(N3CCCC3)C2)ccc1Nc1cc2c(cn1)N(C)C(=O)c1occc1N2C (centres unmarked) [Compound 15] |  |  |  |  |  | > 85% | ≤ 50 nM |  | E (E is ≦35%) | E (E is ≦35%) | ≤ 35% | ≤ 35% | E (E is ≦35%) | 75 to 90%
CCOc1cc(C(=O)N2CC[C@H](O)C2)ccc1Nc1cc2c(cn1)N(C)C(=O)c1occc1N2C [Compound 17] |  |  |  |  |  | > 85% | ≤ 50 nM |  | E (E is ≦35%) | E (E is ≦35%) | ≤ 35% | ≤ 35% | E (E is ≦35%) | 75 to 90%
C=CCN1CCN(C(=O)c2ccc(Nc3cc4c(cn3)N(C)C(=O)c3ccccc3N4C)c(OCC)c2)CC1 [Compound 21] |  |  |  |  |  | 70 to 85% | ≤ 50 nM |  | E (E is ≦35%) | E (E is ≦35%) | ≤ 35% | ≤ 35% | E (E is ≦35%) | 75 to 90%
CCOc1cc(C(=O)N2CC[C@@H](N3CCCC3)C2)ccc1Nc1cc2c(cn1)N(C)C(=O)c1ccccc1N2C [Compound 24] |  |  |  |  |  | > 85% | ≤ 50 nM |  | E (E is ≦35%) | E (E is ≦35%) | ≤ 35% | ≤ 35% | E (E is ≦35%) | > 90%
CCOc1cc(C(=O)N2CC[C@@H](N(C)C)C2)ccc1Nc1cc2c(cn1)N(C)C(=O)c1occc1N2C [Compound 25] |  |  |  |  |  | > 85% | ≤ 50 nM |  | E (E is ≦35%) | E (E is ≦35%) | ≤ 35% | ≤ 35% | E (E is ≦35%) | > 90%
CCOc1cc(C(=O)N(C)CCN2CCCC2)ccc1Nc1cc2c(cn1)N(C)C(=O)c1ccccc1N2C [Compound 28] |  |  |  |  |  | > 85% | 50 to 100 nM |  | E (E is ≦35%) | E (E is ≦35%) | ≤ 35% | ≤ 35% | E (E is ≦35%) | > 90%
CCOc1cc(C(=O)N(C)CCn2ccnc2)ccc1Nc1cc2c(cn1)N(C)C(=O)c1ccccc1N2C [Compound 30] |  |  |  |  |  | 70 to 85% | ≤ 50 nM |  | E (E is ≦35%) | E (E is ≦35%) | ≤ 35% | ≤ 35% | E (E is ≦35%) | 75 to 90%
CCOc1cc(C(=O)N2CCNC[C@@H]2C)ccc1Nc1cc2c(cn1)N(C)C(=O)c1ccccc1N2C [Compound 31] |  |  |  |  |  | > 85% | ≤ 50 nM |  | E (E is ≦35%) | E (E is ≦35%) | ≤ 35% | ≤ 35% | E (E is ≦35%) | 75 to 90%
CCOc1cc(C(=O)N2CCN(CCO)CC2)ccc1Nc1cc2c(cn1)N(C)C(=O)c1ccccc1N2C [Compound 37] |  |  |  |  |  | 70 to 85% | ≤ 50 nM |  | E (E is ≦35%) | E (E is ≦35%) | ≤ 35% | ≤ 35% | E (E is ≦35%) | 75 to 90%
CCOc1cc(C(=O)N2CCN(C3CC3)CC2)ccc1Nc1cc2c(cn1)N(C)C(=O)c1ccccc1N2C [Compound 39] |  |  |  |  |  | < 70% | ≤ 50 nM |  | E (E is ≦35%) | E (E is ≦35%) | ≤ 35% | ≤ 35% | E (E is ≦35%) | 50 to 75%
CCOc1cc(C(=O)N2CCC(N3CCN(C)CC3)CC2)ccc1Nc1cc2c(cn1)N(C)C(=O)c1ncccc1N2C [Compound 40] | E (E is ≦35%) | E (E is ≦35%) | ≤ 35% | ≤ 35% | E (E is ≦35%) | < 70% | ≤ 50 nM | > 90% |  |  |  |  |  | 
CCOc1cc(C(=O)N(C)CCN(CC)CC)ccc1Nc1cc2c(cn1)N(C)C(=O)c1ccccc1N2C [Compound 42] | E (E is ≦35%) | E (E is ≦35%) | ≤ 35% | ≤ 35% | E (E is ≦35%) | > 85% | ≤ 50 nM | > 90% |  |  |  |  |  | 
